Earlier results on two compounds are cited in patent US20090022779A1, “Phenytoin Formulations, and Uses Thereof in Wound Healing” (Royal College of Surgeons in Ireland, priority 2004, published 2009).

The conditions of this data set: background statement.

In the case of `O=C1N=C([O-])NC1(c1ccccc1)c1ccccc1.[Na+]` [Phenyloin sodium salt], the solubility in water entry is “soluble”. `O=C1NC(=O)C(c2ccccc2)(c2ccccc2)N1` [Phenyloin, 5,5-diphenylimidazolidine-2,4-dione]: the solubility in water result is listed as “only slightly soluble”.
